According to patent publication US20250295109A1, “UNIVERSAL SYNERGIST FOR INSECT ATTRACTANTS” (North Carolina State University, priority 2022, published 2025):

Columns and labels:
Type in all cases: in vivo
[1] = tested on: Drosophila melanogaster; test: dual choice free flight cage trapping assay with glass vial traps (water or balsamic vinegar); conditions: 24 hours
Excerpt: FIG. 4 is a schematic drawing showing a design for a dual choice free flight cage trapping assay used herein to determine the effect of nonanal on trapping fruit flies (Drosophila melanogaster). A 13 centimeter (cm) by 19 cm by 9.5 cm cage with a mesh opening on the top is equipped with two glass 5.5 cm by 2.5 cm glass vial traps, each equipped with a lid fitted with a truncated pipette tip. At the bottom of each glass vial trap is either water or a fermentation attractant (i.e., balsamic vinegar). Inside each glass vial trap is another smaller glass vial containing either a solution of nonanal in dimethyl sulfoxide (DMSO) or a DMSO without nonanal. The attraction of starved Drosphila melanogaster males and females to balsamic vinegar (Bellino, Cento Fine Foods, Deptford, New Jersey, United States of America) with and without 1 μg nonanal was studied in a dual choice trapping assay. Nonanal was placed in a glass vial, separately from the balsamic vinegar, but adjacent to it. In all experiments, 20 3-4 day old, 24 hours starved flies (males and females) were given a choice between two traps. […] After 24 hours, flies in both traps were counted. Various amounts of nonanal were dissolved in DMSO, and then 10 μl of nonanal DMSO solution were placed in a separate glass vial (12×32 mm, Thermo Fisher Scientific. Waltham, Massachusetts, United States of America) adjacent to 0.4 ml of water in one trap. The other trap in the dual choice trapping assay contained 0.4 ml of water plus a separate vial containing 10 μl of DMSO. Twenty 3-4 day old, 24 hours starved flies (males and females) were given a choice between the two traps. After 24 hours, flies in both traps were counted. […] N=10. […] The attraction of starved Drosphila melanogaster males and females to balsamic vinegar to which various amounts of nonanal were added is shown in FIG. 6. Various amounts of nonanal were dissolved in DMSO, and then 10 μl of nonanal DMSO solution were placed in a separate glass vial adjacent to 0.4 ml of balsamic vinegar in one trap. […] After 24 hours, flies in both traps were counted. […]

[2] = tested on: Drosophila melanogaster; test: dual choice trapping cage assay with commercial fruit fly traps and lure (TERRO); conditions: 24 hours
Protocol: FIG. 7A is a schematic drawing showing a design for a dual choice free flight cage trapping assay used to determine the effect of nonanal on the trapping of fruit flies (Drosophila melanogaster) when used in combination with a commercial fruit fly lure. Inside a 30 centimeter (cm) by 30 cm cage are placed two commercial fruit fly traps. Inside each commercial fruit fly trap is placed 1 milliliter (mL) of a commercial fruit fly lure. In addition, in one trap (Trap 1) is placed a 1.5 mL vial containing 50 microliters (μL) dimethyl sulfoxide (DMSO), while in the other trap (Trap 2) is placed a 1.5 mL vial containing 50 μL of a solution of nonanal in DMSO. For each experiment 40 to 120 fruit flies are used. The attraction of starved Drosphila melanogaster males and females to a commercial lure and trap to which various amounts of nonanal were added is shown in FIG. 7B. In all experiments, 40 to 120 3-4 day old, 24 hours starved flies (males and females) were given a choice between two commercial fruit fly traps (sold under the tradename TERRO® traps; Model #BT2502; Senoret Chemicals Co., Inc., Lititz, Pennsylvania, United States of America). […] After 24 hours, flies in both traps were counted. […] After 24 hours, flies in both traps were counted.

[3] = tested on: male corn earworm (CEW, Helicoverpa zea); test: field trapping of male CEW in Hartstack traps, nonanal and/or 1-hexanol
Excerpt: FIG. 11 is a graph showing the results of a field trapping study of male com earworm (CEW, Helicoverpa zea) using traps containing a dispenser containing a solution of 0.5% nonanal and/or 0.5% 1-hexanol alone or also containing a dispenser for a commercial CEW sex pheromone lure. Effectiveness is reported as number of male CEW capture per day per trap.
To determine the effects of 1-hexanol and combinations of 1-hexanol and nonanal, Hartstack traps with or without the commercial CEW sex pheromone lure and with or without one or both of nonanal and 1-hexanol were placed in sorghum or corn fields. Nonanal and 1-hexanol, if present, were present at 0.5% on a weight to weight basis with the major component of the commercial pheromone lure.

CCCCCCCCC=O [nonanal]
attraction of flies to balsamic vinegar at highest amount of nonanal ([1]; highest amount of nonanal (1000 μg) in DMSO adjacent to balsamic vinegar): interferes with attraction of flies to balsamic vinegar | flies trapped, nonanal trap versus trap without nonanal ([1]; increasing amount of nonanal (e.g., 1 μg) in DMSO in vial adjacent to 0.4 ml balsamic vinegar, other trap balsamic vinegar and DMSO): more flies are trapped | flies trapped, nonanal trap versus trap without nonanal ([1]; nonanal at various concentrations in DMSO (10 μl) in vial adjacent to 0.4 ml water, other trap water and DMSO only, starved males and females): does not trap any more flies than traps containing water and DMSO only | flies trapped, nonanal trap versus trap without nonanal ([2]; increasing amount of nonanal in 50 μl DMSO with 1 mL commercial fruit fly lure, other trap lure plus DMSO): more flies are trapped | attraction of flies to commercial fruit fly lure at too much nonanal ([2]; too much nonanal in 50 μl DMSO with 1 mL commercial fruit fly lure): interferes with attraction of flies to the commercial fruit fly lure | effectiveness in trapping male CEW, without commercial pheromone lure ([3]; 0.5% w/w level, without the commercial pheromone lure, sorghum or corn fields): not effective in trapping male CEW | effectiveness of commercial lure in trapping male CEW when combined ([3]; 0.5% w/w with major component of commercial pheromone lure, used in combination with the commercial lure): improved its effectiveness
